From ChEMBL document CHEMBL5321237 (Eur J Med Chem, 2023)
≈ marks a conversion by molar mass, not a printed value. Calls of active or inactive are those of the source. The rule behind the calls is not given here.

Assays:
[1] = molecular target: T1, Macrophage colony-stimulating factor 1 receptor (Mus musculus, UniProt P09581); test: Inhibition of CSF1-induced CSF1R signalling in mouse BMDM cells assessed as reduction in ERK1/2 phosphorylation preincubated for 30 mins followed by CSF1 addition and measured after 10 mins; type: cell-based
T1 sequence (P09581 whole entry): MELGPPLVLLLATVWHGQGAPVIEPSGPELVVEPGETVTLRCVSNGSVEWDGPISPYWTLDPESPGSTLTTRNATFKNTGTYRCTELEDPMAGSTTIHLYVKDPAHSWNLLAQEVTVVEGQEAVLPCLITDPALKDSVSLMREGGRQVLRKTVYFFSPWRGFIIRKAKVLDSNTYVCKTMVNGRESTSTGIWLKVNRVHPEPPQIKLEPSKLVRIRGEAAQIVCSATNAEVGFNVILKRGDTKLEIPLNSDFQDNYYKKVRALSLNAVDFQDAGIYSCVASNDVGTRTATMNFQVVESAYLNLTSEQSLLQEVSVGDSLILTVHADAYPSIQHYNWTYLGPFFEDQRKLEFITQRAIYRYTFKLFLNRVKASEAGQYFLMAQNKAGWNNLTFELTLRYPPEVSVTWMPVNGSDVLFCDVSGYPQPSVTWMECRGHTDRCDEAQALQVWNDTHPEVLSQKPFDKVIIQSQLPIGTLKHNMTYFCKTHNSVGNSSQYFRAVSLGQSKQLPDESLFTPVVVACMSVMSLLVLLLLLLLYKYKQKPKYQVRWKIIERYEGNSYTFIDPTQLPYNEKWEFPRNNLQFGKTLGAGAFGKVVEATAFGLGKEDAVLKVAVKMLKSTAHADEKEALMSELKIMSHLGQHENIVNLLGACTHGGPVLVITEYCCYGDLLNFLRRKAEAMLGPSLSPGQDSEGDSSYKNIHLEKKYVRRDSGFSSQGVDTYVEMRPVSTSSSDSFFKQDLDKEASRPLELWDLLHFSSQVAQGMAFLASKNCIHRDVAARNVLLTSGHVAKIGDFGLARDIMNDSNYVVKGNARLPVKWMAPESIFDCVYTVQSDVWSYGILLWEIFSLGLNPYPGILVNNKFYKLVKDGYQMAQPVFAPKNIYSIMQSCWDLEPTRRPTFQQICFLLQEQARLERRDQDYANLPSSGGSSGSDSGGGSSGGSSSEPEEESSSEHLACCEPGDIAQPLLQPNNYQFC

[2] = molecular target: T2, Macrophage colony-stimulating factor 1 receptor (Mus musculus) (UniProt P09581); test: Inhibition of CSF1-induced CSF1R signalling in mouse BMDM cells assessed as reduction in ERK1/2 phosphorylation by measuring fold change preincubated for 30 mins followed by CSF1 addition and measured after 10 mins relative to pexidartinib; type: cell-based; details: time 40.0 min
T2 sequence (whole entry): T1 sequence (P09581 whole entry)

[3] = Kinetic aqueous solubility of compound at pH 7.4 at 500 uM incubated for 90 mins by spectrophotometry analysis; type: physicochemical; details: buffer, read-out: Kinetic_solubility
[4] = Metabolic stability in mouse liver microsomes assessed as intrinsic clearance at 3 uM measured upto 50 mins by LC-MS analysis; type: ADME, Microsome
[5] = Metabolic stability in human liver microsomes assessed as intrinsic clearance at 3 uM measured upto 50 mins by LC-MS analysis; type: ADME, Microsome
[6] = Plasma protein binding in mouse assessed as bound fraction at 5 uM incubated for 6 hrs by equilibrium dialysis based LC-MS analysis; type: ADME, cell-free; details: read-out: PPB (converted)
[7] = Stability in mouse plasma assessed as compound remaining at 5 uM incubated for 1 hr by LC-MS analysis; type: ADME, cell-free; details: read-out: Stability
[8] = Microsomal stability mouse liver microsomes assessed as compound remaining at 5 uM incubated for 1 hr by LC-MS analysis; type: ADME, Microsome; details: read-out: Stability
[9] = Metabolic stability in cryopreserved pooled ICR/CD-1 mouse hepatocytes assessed as intrinsic clearance measured per 10^6 cells at 3 uM measured for 60 mins by LC-MS/MS analysis; type: ADME, cell-based, Hepatocyte; details: read-out: CLH
[10] = Half life in C57BLKS mouse at 1 mg/kg, iv administered as cassette dose measured for 480 mins by LC-MS analysis; type: ADME, organism-based; details: in vivo
[11] = Clearance in C57BLKS mouse at 1 mg/kg, iv administered as cassette dose measured for 480 mins by LC-MS analysis; type: ADME, organism-based; details: in vivo; for clearance: C57BLKS
[12] = Observed volume of distribution at steady state in C57BLKS mouse at 1 mg/kg, iv administered as cassette dose measured for 480 mins by LC-MS analysis; type: ADME, organism-based; details: in vivo, read-out: Vdss
[13] = Inhibition of […] induced osteoclast differentiation in human Osteoclast precursor cells assessed as suppression of osteoclast formation at 100 to 1000 nM incubated for over 7 days with media replacement for every 3 days by TRITC-phalloidin/Hoechst staining based microscopic analysis relative to control; type: functional, Osteoclast precursor cell; details: dose 100-1000 nM, time > 7 day
BaF3 = test: Antiproliferative activity against BaF3 cells expressing human CSF1R assessed as suppression of cell proliferation incubated for 72 hrs by Cell Titer Glo assay; type: functional, cell-based; details: Mus musculus, BaF3, 72 h
[14] = molecular target: T3, Macrophage colony-stimulating factor 1 receptor (Homo sapiens, UniProt P07333); test: Binding affinity to autoinhibited form of CSF1R (unknown origin) assessed as dissociation constant incubated for 1 hr by qPCR based Hill equation analysis
[15] = molecular target: T3, Macrophage colony-stimulating factor 1 receptor; test: Binding affinity to non-autoinhibited form of CSF1R (unknown origin) assessed as dissociation constant incubated for 1 hr by qPCR based Hill equation analysis
[16] = molecular target: T3, Macrophage colony-stimulating factor 1 receptor; test: Selectivity index, ratio of Kd for non-autoinhibited form of CSF1R (unknown origin) to Kd for autoinhibited form of CSF1R (unknown origin)
[17] = test system: Osteoclast precursor cell; details: Homo sapiens, dose 100-1000 nM, time > 7.0 day
[18] = test system: Osteoclast precursor cell; details: Homo sapiens, dose 10.0 nM, time > 7.0 day
[19] = molecular target: T3, Macrophage colony-stimulating factor 1 receptor; test: Inhibition of CSF1R (unknown origin) using FRET-peptide as substrate incubated in presence of ATP by FRET based Z-LYTE assay
[20] = molecular target: Epidermal growth factor receptor (Homo sapiens, UniProt P00533); test: Inhibition of EGFR (unknown origin) in presence of ATP
Sequence of Epidermal growth factor receptor (P00533 whole entry): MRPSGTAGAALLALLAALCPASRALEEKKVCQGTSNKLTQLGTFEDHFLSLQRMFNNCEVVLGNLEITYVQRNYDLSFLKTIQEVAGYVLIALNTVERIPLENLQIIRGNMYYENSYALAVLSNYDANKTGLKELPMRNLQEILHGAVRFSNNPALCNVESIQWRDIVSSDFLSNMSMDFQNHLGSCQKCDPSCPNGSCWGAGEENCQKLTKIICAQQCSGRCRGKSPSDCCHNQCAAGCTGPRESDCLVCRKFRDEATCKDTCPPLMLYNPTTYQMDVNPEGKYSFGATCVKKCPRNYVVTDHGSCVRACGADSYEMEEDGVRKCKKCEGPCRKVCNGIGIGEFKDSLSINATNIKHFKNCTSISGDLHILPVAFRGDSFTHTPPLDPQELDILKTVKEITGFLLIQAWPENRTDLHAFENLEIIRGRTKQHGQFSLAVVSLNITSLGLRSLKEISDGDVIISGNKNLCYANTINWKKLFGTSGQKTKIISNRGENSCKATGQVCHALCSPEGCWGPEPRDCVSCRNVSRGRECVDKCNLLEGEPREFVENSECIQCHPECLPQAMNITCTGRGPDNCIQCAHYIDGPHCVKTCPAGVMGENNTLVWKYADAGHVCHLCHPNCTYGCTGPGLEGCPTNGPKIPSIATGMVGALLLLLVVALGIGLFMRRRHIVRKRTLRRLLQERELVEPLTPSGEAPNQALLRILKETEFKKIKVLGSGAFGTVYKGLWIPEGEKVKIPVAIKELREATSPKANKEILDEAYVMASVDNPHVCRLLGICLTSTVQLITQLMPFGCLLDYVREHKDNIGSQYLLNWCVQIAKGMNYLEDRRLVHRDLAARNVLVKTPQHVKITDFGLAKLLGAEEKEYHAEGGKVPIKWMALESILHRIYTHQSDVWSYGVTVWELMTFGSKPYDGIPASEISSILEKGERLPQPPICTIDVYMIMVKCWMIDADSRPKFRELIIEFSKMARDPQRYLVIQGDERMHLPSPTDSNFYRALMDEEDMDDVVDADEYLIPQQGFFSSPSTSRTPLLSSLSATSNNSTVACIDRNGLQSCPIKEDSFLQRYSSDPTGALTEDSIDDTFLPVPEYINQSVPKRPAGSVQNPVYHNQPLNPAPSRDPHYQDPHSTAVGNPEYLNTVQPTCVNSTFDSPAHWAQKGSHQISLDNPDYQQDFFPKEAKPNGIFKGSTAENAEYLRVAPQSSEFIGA

T3 sequence (P07333 whole entry): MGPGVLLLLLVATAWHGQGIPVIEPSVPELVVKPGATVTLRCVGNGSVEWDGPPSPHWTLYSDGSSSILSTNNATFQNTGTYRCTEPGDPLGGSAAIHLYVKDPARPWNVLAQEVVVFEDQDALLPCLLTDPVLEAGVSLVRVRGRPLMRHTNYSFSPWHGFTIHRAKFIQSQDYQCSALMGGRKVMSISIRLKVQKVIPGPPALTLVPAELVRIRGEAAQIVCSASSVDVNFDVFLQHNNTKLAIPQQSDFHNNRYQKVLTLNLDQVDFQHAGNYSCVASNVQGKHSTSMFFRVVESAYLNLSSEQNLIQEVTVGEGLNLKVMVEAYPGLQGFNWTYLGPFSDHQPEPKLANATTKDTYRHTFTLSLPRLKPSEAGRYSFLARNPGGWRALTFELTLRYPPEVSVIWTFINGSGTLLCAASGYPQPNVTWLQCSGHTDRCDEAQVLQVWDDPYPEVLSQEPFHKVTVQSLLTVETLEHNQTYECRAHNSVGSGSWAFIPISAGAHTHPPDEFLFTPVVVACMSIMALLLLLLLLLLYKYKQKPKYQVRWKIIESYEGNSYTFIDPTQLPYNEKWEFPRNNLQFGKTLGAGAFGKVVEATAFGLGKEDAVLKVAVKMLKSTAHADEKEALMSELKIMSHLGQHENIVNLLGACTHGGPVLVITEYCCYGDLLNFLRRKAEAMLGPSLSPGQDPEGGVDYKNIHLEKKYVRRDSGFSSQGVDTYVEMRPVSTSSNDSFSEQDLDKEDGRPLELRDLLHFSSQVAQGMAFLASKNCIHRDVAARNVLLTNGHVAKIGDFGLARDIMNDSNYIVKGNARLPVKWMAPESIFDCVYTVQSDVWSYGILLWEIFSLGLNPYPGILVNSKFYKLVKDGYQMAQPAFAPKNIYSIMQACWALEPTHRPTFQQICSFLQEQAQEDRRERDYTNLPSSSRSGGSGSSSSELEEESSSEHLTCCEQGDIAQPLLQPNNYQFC

Compound: CN(CC1CCOCC1)c1ncnc2[nH]c(-c3ccc(CCO)cc3)nc12
- IC50 [1]: 106 nM
- fold change (FC) [2]: 0.7
- solubility kinetic at […], 500 µM [3]: 37.5 µM (≈ 13.8 µg/mL)
- CLint [4]: 30.2 µL/min/mg
- CLint [5]: 14.7 µL/min/mg
- fraction unbound at 6 h, 5 µM [6]: 0.366
- remaining at 1 h, 5 µM [7]: 97.9%
- remaining at 1 h, 5 µM [8]: 97.2%
- hepatocyte CLint at 3 µM [9]: 22 µL/min/1e6 cells
- half-life [10]: 24 min
- clearance [11]: 317 mL/min/kg
- Vd [12]: 9 L/kg
- inhibition (INH) [13]: 100%
- IC50 (BaF3): 1500 nM
- Kd [14]: 0.5 nM
- Kd [15]: 36 nM
- Ratio [16]: 72
- inhibition [17]: Active
- inhibition [18]: Active

Compound: CN(CC1CCCCO1)c1ncnc2[nH]c(-c3ccc(CO)cc3)nc12 (stereo unspecified)
- IC50 [1]: > 300 nM
- solubility kinetic at […], 500 µM [3]: 9.2 µM (≈ 3.25 µg/mL)
- CLint [5]: 24.2 µL/min/mg

Compound: CN(CC1CCCO1)c1ncnc2[nH]c(-c3ccc(CO)cc3)nc12 (stereo unspecified)
- IC50 [1]: > 300 nM
- solubility kinetic at […], 500 µM [3]: 39.7 µM (≈ 13.5 µg/mL)
- CLint [5]: 33.2 µL/min/mg

Compound: FC(F)(F)c1ccc(CNc2ccc(Cc3c[nH]c4ncc(Cl)cc34)cn2)cn1 [PEXIDARTINIB]
- IC50 [1]: 100 nM
- solubility kinetic at […], 500 µM [3]: 20.7 µM (≈ 8.65 µg/mL)
- remaining at 1 h, 5 µM [7]: 100%
- clearance [11]: 0.833 mL/min/kg
- Vd [12]: 0.4 L/kg
- inhibition (INH) [13]: 100%
- IC50 (BaF3): 60 nM
- inhibition [17]: Active
- inhibition [18]: Active

Compound: CN(Cc1ccccn1)c1ncnc2[nH]c(-c3ccc(CO)cc3)nc12
- IC50 [19]: 7.2 nM

Compound: CN(Cc1ccccc1)c1ncnc2[nH]c(-c3ccccc3)nc12
- IC50 [19]: 2.7 nM

Compound: CN(CC1CCOCC1)c1ncnc2[nH]c(-c3ccc(CO)cc3)nc12
- IC50 [1]: 83 nM
- solubility kinetic at […], 500 µM [3]: 55.4 µM (≈ 19.6 µg/mL)
- CLint [4]: 58.7 µL/min/mg
- CLint [5]: 15.8 µL/min/mg
- fraction unbound at 6 h, 5 µM [6]: 0.44
- remaining at 1 h, 5 µM [7]: 100%
- remaining at 1 h, 5 µM [8]: 83%
- hepatocyte CLint at 3 µM [9]: 148 µL/min/1e6 cells
- half-life [10]: 24 min
- CL ([11]; iv, 1 mg/kg, 8 h): 3300 mL/min/kg
- Vd [12]: 80 L/kg
- inhibition (INH) [13]: 100%
- IC50 (BaF3): 3100 nM
- Kd [14]: 4.5 nM
- Kd [15]: 80 nM
- inhibition [17]: Active
- inhibition [18]: Active

Compound: Cc1ccc(CN(C)c2ncnc3[nH]c(-c4ccc(CO)cc4)nc23)cc1
- IC50 [19]: 11 nM

Compound: CN(Cc1ccccc1)c1ncnc2[nH]c(-c3ccc(CO)cc3)nc12
- IC50 [1]: 330 nM
- fold change (FC) [2]: 2.9
- CLint [4]: 57.8 µL/min/mg
- CLint [5]: 14.4 µL/min/mg
- IC50 [20]: 109 nM

Compound: CN(CC1CCOC1)c1ncnc2[nH]c(-c3ccc(CO)cc3)nc12 (stereo unspecified)
- IC50 [1]: > 300 nM
- solubility kinetic at […], 500 µM [3]: 131 µM (≈ 44.5 µg/mL)
- CLint [5]: 20.1 µL/min/mg

Compound: CN(Cc1cccs1)c1ncnc2[nH]c(-c3ccc(CO)cc3)nc12
- IC50 [19]: 2.9 nM

Compound: CN1CCCC(CN(C)c2ncnc3[nH]c(-c4ccc(CO)cc4)nc23)C1 (stereo unspecified)
- IC50 [1]: > 300 nM
- solubility kinetic at […], 500 µM [3]: 469 µM (≈ 172 µg/mL)
- CLint [5]: 3.6 µL/min/mg

Compound: CN(CC1CCCCC1)c1ncnc2[nH]c(-c3ccc(CO)cc3)nc12
- IC50 [19]: 1 nM
- IC50 [1]: 100 nM
- fold change (FC) [2]: 0.9
- solubility kinetic at […], 500 µM [3]: 0.5 µM (≈ 0.176 µg/mL)
- CLint [5]: 22.3 µL/min/mg

Compound: CN(CC1CCN(Cc2ccccc2)CC1)c1ncnc2[nH]c(-c3ccc(CO)cc3)nc12
- IC50 [1]: > 300 nM
- solubility kinetic at […], 500 µM [3]: 33.5 µM (≈ 14.8 µg/mL)
- CLint [5]: 22.1 µL/min/mg

Compound: CN(Cc1ccncc1)c1ncnc2[nH]c(-c3ccc(CO)cc3)nc12
- IC50 [19]: 2.2 nM

Compound: Cc1cccc(CN(C)c2ncnc3[nH]c(-c4ccc(CO)cc4)nc23)c1
- IC50 [19]: 1.3 nM
